We go through two compounds from patent US20240182475A1 (Université de Lausanne, priority 2021, published 2024).

The target of one assay is recombinant human CSE (Homo sapiens, UniProt P32929). Put plainly: CSE activity (AzMC probe assay), H2S production by recombinant human CSE. To be noted: for CSE production of H2S (AzMC fluorescence, kinetic 2 h): 50 uM, 2 μg rCSE, 10 mM L-cysteine, 5 uM PLP, Tris-HCl pH 8, vs vehicle. The class given is biochemical. On the procedure:
The activity of recombinant human CSE (rCSE) was tested in the presence of C5, compound 8 (50 uM), Z20 compound 13 (50 uM) or vehicle (DMSO). Briefly, compounds were added in reaction buffer (50 mM Tris-HCl, pH 8) containing 2 μg of rCSE, 10 mM CSE substrate L-cysteine, 5 uM pyridoxal 5′-phosphate (PLP). After addition of 10 μM of the H2S sensitive fluorescent probe 7-azido-4-methylcoumarin (AzMC) in a total volume of 100 μl, fluorescence was immediately measured in kinetic mode for 2 h at 37° C. with SpectraMax M5 reader, with excitation and emission wavelengths of 365 nm and 450 nm, respectively. Statistical analysis was determined using simple linear regression with p<0.0001 for C5 vs. vehicle and p<0.0002 for Z20 vs. vehicle.
Recombinant human CSE (1 μg/well) was incubated with various concentrations of compounds (all in final 0.1% DMSO), or with 0.1% DMSO as a control, in 10 mM sodium phosphate buffer pH 8.2. Next, 10 mM L-cysteine and 1 mM PLP and 10 μM of the probe AzMC were then added to reach 100 μL total volume. Fluorescence was measured for 3 h at 37° C. with excitation and emission wavelengths of 365 nm and 450 nm, respectively, in a 96-well half area black plate with transparent bottom.
Dose-response curve of each compound was performed, using triplicate wells for each tested doses. The background (10 mM sodium phosphate buffer with L-cysteine, PLP and AzMC) was subtracted from all values. Each mean value was converted to percent activity (0% defined as the smallest mean in each data set, 100% defined as the highest mean in each data set). The data were normalized using the four parameter logistic model (4PL) equation to calculate EC50 using GraphPad Prism.

The test system of another assay is MOVAS cells. Put plainly: MOVAS cell calcification assay (Alizarin red). To be noted: for Mineralization (Alizarin red): 50 uM. The assay is classed as cell-based, mouse. In a few lines: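 MOVAS mouse vascular smooth muscle cells were calcified with CPP (equivalent to 50 μg Ca/mL) for 24 h at 37 °C in DMEM/10% FBS with compounds in 0.1% DMSO. Deposits were stained with Alizarin Red (pH 4.2), dissolved in cetylpyridinium chloride and read at 570 and 630 nm. No-CPP background was subtracted.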

Assay [1] relates to primary human chondrocytes. Put plainly: Primary human chondrocyte calcification (Alizarin red). The assay is classed as cell-based. To be noted: secondary CPP 24 h, 50 uM. On the procedure:
(a) WT and Cse-deficient chondrocytes were incubated with a CSE activator (SU004, 50 μM) previously identified by high-through put screen, or with the equivalent volume of DMSO (0.1%) for 24 hours in calcification medium. STS 25 mM was used as a positive control for calcification inhibition. Calcium-containing crystals were stained with Alizarin red and quantified. (b) Cytotoxicity was assessed by LDH measurement and expressed as % over 100% cytotoxicity. (c) IL-6 secretion was measured by ELISA in supernatant of WT chondrocytes incubated with SU004 50 μM or STS 25 mM for 24 hours in calcification medium. (d) Primary human chondrocytes from 3 OA patients (P1, P2, P3) were incubated with SU004 50 μM, or with the equivalent volume of DMSO (0.1%) for 24 hours in calcification medium. Calcium-containing crystals were stained with Alizarin red and quantified. (e) Cytotoxicity was assessed by LDH measurement and expressed as % over 100% cytotoxicity. (f) IL-6 secretion was measured by ELISA in supernatant of human chondrocytes incubated for 24 hours with SU004 50 μM in calcification medium. *p<0.05, ** p<0.01, ****p<0.0001.
1. Alizarin red staining of primary human chondrocytes stimulated with secondary CPP for 24 h in DMEM+10% FBS and treated or not with 50 uM of compounds.
Chondrocytes were isolated from cartilage pieces incubated overnight in the digestion enzyme Liberase™ (Roche). […]

recombinant human CSE, sequence (P32929 whole entry): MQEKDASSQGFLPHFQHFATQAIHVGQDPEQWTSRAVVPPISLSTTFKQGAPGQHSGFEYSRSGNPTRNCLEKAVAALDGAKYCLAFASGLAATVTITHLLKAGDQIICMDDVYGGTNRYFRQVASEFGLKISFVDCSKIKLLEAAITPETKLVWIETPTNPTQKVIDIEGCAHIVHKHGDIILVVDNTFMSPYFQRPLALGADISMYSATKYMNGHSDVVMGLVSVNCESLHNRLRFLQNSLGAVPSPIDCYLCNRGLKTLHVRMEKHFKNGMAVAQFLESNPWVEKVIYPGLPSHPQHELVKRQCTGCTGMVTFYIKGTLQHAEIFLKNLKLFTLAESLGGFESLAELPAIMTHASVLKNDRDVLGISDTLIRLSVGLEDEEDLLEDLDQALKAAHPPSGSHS

In general, EC50 refers to the midpoint of the concentration-response curve. By inhibition is commonly meant how much of the control response was suppressed. With `Cn1ncc2c(Nc3cnn(CC4CCCO4)c3)ncnc21` (stereo not drawn) [Compound 8, N-{1-methyl-1H-pyrazolo[3,4-d]pyrimidin-4-yl}-1-[(oxolan-2-yl)methyl]-1H-pyrazol-4-amine], at recombinant human CSE, the “CSE production of H2S (AzMC fluorescence, kinetic 2 h)” value is recorded as “augments CSE production of H2S”. For the same compound, on recombinant human CSE (EC50 calculated by the four-parameter logistic model), the EC50 was 68.6 nM. For the same compound, in the assay on MOVAS cells (Mus musculus, MOVAS, at 2 uM, read-out: Calcification assay Max calcification inhibition (%) at the indicated dose of compound), the inhibition at 2 µM is 38%. Moreover, the “Mineralization (Alizarin red)” value in the assay on MOVAS cells (sCPP 24 h) was “inhibit murine vascular smooth muscle cells (MOVAS cells) mineralization”; in assay [1], “inhibit primary human chondrocyte mineralization”.
For `CCn1cnc2c(Nc3cnn(CC4CCCO4)c3)ncnc21` (stereo not drawn) [Compound 13], the “CSE production of H2S (AzMC fluorescence, kinetic 2 h)” value at recombinant human CSE is listed as “augments CSE production of H2S”. Also, the “Mineralization (Alizarin red)” value is “inhibits MOVAS cells mineralization” with MOVAS cells (sCPP 24 h) and “inhibit primary human chondrocyte mineralization” in assay [1]. For the same compound, in the assay with MOVAS cells (sCPP 24 h, different concentrations), the “Mineralization (Alizarin red absorbance 570-630 nm)” value is “Dose-dependent effect”.
